Here are results for 2 molecules from patent publication US9220746B2, “Compounds and methods for treating bone disorders and controlling weight” (The University of North Carolina at Chapel Hill, priority 2009, dated 2015).

The subject of assay [1] is primary mouse preadipocytes. Nature of the assay: Differentiation of primary mouse preadipocytes, oil red O staining. It is filed as cell-based. The settings on record: peptide 2 ng to 2 ug/ml. The protocol: The maximum effect of the peptide was to inhibit differentiation to a level wherein <20% of the cells were positive. These findings were reconfirmed using primary mouse preadipocytes. 35-50 day old mice were killed and inguinal fat pads were removed aseptically. Fat tissue was washed and dissolved in Hanks basic salt solution containing 0.1% glucose and 2 mg/ml collagenase, (type 3 Worthington) and 4% BSA. Following 15 min digestion at 37°, the tissue was separated by dispersion and pipetting and then filtered through an 80 micron sterile nylon filter. The cells were then plated in DMEM F12 containing 10% fetal calf serum and then centrifuged at 700×g to separate the stromal vascular cells from the adipocytes, which float. The supernatant was discarded and the cell pellet which contained the stromal vascular cells was resuspended in DMEM F12 with 10% FCS and plated at a density of 15,000 cells/cm^2. The medium was aspirated 24 hr later and fresh medium was replaced every 3 days until the cells reached 80-90% confluence. Differentiation was induced by adding serum free medium containing 25 mM glucose, 10 ug/ml transferin, 10 nM T3, 10-7 dexamethasone, 5 ug/ml HDL and 16.7 nM insulin. This was added to cultures that were between […]. […] The IGFBP-2 had been purified from cellular conditioned medium and was determined to be homogenous by amino acid sequence analysis.

Assay [2] concerns mouse metatarsal bones. Nature of the assay: Ex vivo metatarsal explant bone growth and mineralization. It is filed as cell-based. As to conditions: for bone growth and calcification: metatarsals derived from IGFBP-2−/− mice, 20-200 ng/ml. An excerpt:
This system uses an ex vivo explant system, therefore it is a transition between cultured cells and in vivo experiments. The bone forming tissue is removed directly from a mouse and then grown in organ culture for several days. The test additives can be added directly to the medium at any concentration in order to test for biological activity. The method is as follows: mouse metatarsal bones were isolated from newborn mice between days 0 and 3 after birth using the dissecting microscope. The middle three metatarsals were used for all experiments. Three metatarsals were incubated per well in a 24 well tissue culture dish in DMEM containing 0.5% bovine serum, […], 1 mM beta glycerol phosphate at 37° C. The medium was replaced one day later and the metatarsals are cultured for up to 10 days. Growth was measured by quantitative increase in size, both length and width of the bones using an inverted phase microscope with a built in micrometer scaling bar for measurements. Mineralization was assessed by the addition of calcein (500 ng/ml) to the medium for 2 hrs prior to tissue fixation. Fluorescent images were captured using a digital camera attached to an inverted microscope and quantifying calcein fluorescence under the appropriate […] stimulus. Bone and cartilage histology were measured by fixing the bones in 4% PFA overnight and storing at 70% ethanol, followed by […] embedding sectioning and staining. Sections were stained with H&E, Alizaran red or alkaline phosphatase. For analysis of proteins, the tissue was homogenized in Laemmli sample buffer and gels were run using standard SDS polyacrylamide gel electrophoresis and western blotting.

Assay [3] concerns metacarpals. In words: Metacarpal culture ex vivo (calcein incorporated area, length, width). It is filed as cell-based, mouse. As to conditions: 10 days, IGFBP2 200 ng/ml, peptides 2 μg/ml, vs PBS. The protocol: FIG. 2. The heparin binding domain of IGFBP2 enhances periosteal expansion of metacarpals ex vivo. Metacarpals were collected from day 1 male mouse, and treated with osteogenic media with IGFBP2 (200 ng/ml) or the heparin-binding domain peptide (HBD-peptide) (2 μg/ml) in the presence or absence of IGF-1 (20 ng/ml) for 10 days. Bones were labeled with calcein (500 ng/ml) and calcein incorporated area was visualized (a) and longitudinal length of calcein incorporated area was quantified (b). Alcian blue and Von Kossa double staining was performed (c) and length and width of metacarpals were quantified (d). Statistical difference was analyzed by ANOVA followed by Bonferroni post-hoc test. Figures shown represent at least 3 independent experiments. Values are expressed as the mean±SEM (n=3-4). ^a; <0.05 vs PBS, ^b; <0.01 vs PBS, ^c; <0.001 vs PBS, ^d; <0.01 vs HBD, ^e; <0.05 vs IGF-I, ^f; <0.05 vs HBD.
Metacarpals were isolated from Igfbp2^−/− mice at 1-day old and incubated in DMEM containing 0.5% BSA, 50 μg/ml ascorbic acid and 1 mM β-glycerol phosphate for 10 days^54. Stimulants were added to culture media from day 1. At day 10, metacarpals were incubated in media containing calcein (500 ng/ml) for 2 hours for staining of calcium deposition, and images were obtained. Then, bones were fixed with 4% PFA, embedded in paraffin, and processed for Alcian blue and von Kossa double staining.

Turning to “KHHLGLEEPKKLR (IGFBP-2 heparin binding domain-containing peptide sequence) [peptide of SEQ ID NO:1]”, the “inhibition of adipocyte differentiation” value in assay [1] was “reconfirmed”. In assay [2], the “bone growth and calcification” value was “stimulated bone growth and calcification”. Moreover, the “effect on bone growth” value in assay [2] (metatarsals from normal mice) is recorded as “modest additional stimulatory effect”.

B1: IGFBP-2: Insulin-like growth factor binding protein-2, 36,000 dalton protein, purified from cellular conditioned medium (protein, UniProt P18065 36-325, looked up)
Insulin-like growth …: AEVLFRCPPCTPERLAACGPPPVAPPAAVAAVAGGARMPCAELVREPGCGCCSVCARLEGEACGVYTPRCGQGLRCYPHPGSELPLQALVMGEGTCEKRRDAEYGASPEQVADNGDDHSEGGLVENHVDSTMNMLGGGGSAGRKPLKSGMKELAVFREKVTEQHRQMGKGGKHHLGLEEPKKLRPPPARTPCQQELDQVLERISTMRLPDERGPLEHLYSLHIPNCDKHGLYNLKQCKMSLNGQRGECWCVNPNTGKLIQGAPTIRGDPECHLFYNEQQEARGVHTQRMQ
Regarding B1, the “calcein incorporated area of metacarpals” value in assay [3] (IGF-1 20 ng/ml) is reported as “significantly enhanced”. Besides, the “width (and length) of metacarpals” value in assay [3] is “increased the width of metacarpals”. Further, the “bone growth and calcification” value in assay [2] is “stimulated bone growth and calcification”.
